Reference: US20220251036A1, “DIFLUOROHALOALLYLAMINE SULFONE DERIVATIVE INHIBITORS OF LYSYL OXIDASES, METHODS OF PREPARATION, AND USES THEREOF” (PHARMAXIS LTD., priority 2019, published 2022)

Test: Chemical stability in topical formulation
Assay type: physicochemical
Source text: The stability of a drug product formulation can have a significant impact on the length and cost of drug development, the nature of the studies required to support regulatory submissions, and, ultimately, safety and approvability. It is important to minimize the amount of impurities or degradation products that form over time due to interactions between the various ingredients in a formulation. This can be particularly important in compositions that are designed to increase skin permeability.

NC/C=C(\F)C(F)(F)S(=O)(=O)c1ccccc1 [Compound 1, (Z)-3,4,4-trifluoro-4-(phenylsulfonyl)but-2-en-1-amine]
% Area at 265 nm (6% in formulation 2, 2-8° C., 161 days): 100.00 % Area
% Area at 265 nm (6% in formulation 2, 40° C., 161 days): 99.66 % Area
% Area at 265 nm (6% in formulation 2, reference sample): 100.00 % Area
% Area at 265 nm (6% in formulation 2, rt, 161 days): 100.00 % Area
% Area at 265 nm (8% in formulation 2, 2-8° C., 161 days): 99.91 % Area
% Area at 265 nm (8% in formulation 2, 40° C., 161 days): 99.36 % Area
% Area at 265 nm (8% in formulation 2, reference sample): 100.00 % Area
% Area at 265 nm (8% in formulation 2, rt, 161 days): 99.74 % Area
compound peak percentage (topical formulation 2, all the tested conditions): above 99.5%
